Measurements from US9249159B2, “Composition for treating hepatitis C virus, regulating phosphorylation of replicase” (Industry-Academic Cooperation Foundation, Yonsei University, priority 2011, dated 2016).

Test system: PDK1
Assay: PDK1 level and activation in R-1 cell by immunoblotting
Type: cell-based
Settings: 10 or 50 nM, 72 hours
Source text: Total cell lysates from cells treated with inhibitors or IFN-α by using antibodies to PDK1, p-PDK1 (S241), PRK2, and p-PRK2 (T816) (products of Cell Signaling Technology, Inc., Beverly, Mass., USA) was used for immunoblotting. In order to detect PKC isoforms α, β, and γ, a polyclonal antibody to a consensus sequence present in three PKC (protein kinase C) isoforms α, β and γ (anti-pan-PKC; Zymed Laboratories, San Francisco, Calif., USA) was used. An anti-α-tubulin antibody (Oncogene Research Products, Cambridge, Mass., USA) was carried out in immunoblotting for checking whether or not the same amount of protein was loaded.
Therefore, anti-HCV activity of 17-DMAG in the R-1 cell was tested at a level lower than 50 nM. To do so, the R-1 cell was treated with a vehicle (0.25% DMSO) or 17-DMAG for 72 hours and the cell lysates (50 μg) and antibodies specific to the proteins were immunoblotted to measure levels of the proteins. An anti-α-tubulin antibody (lower end panel) was used as an internal loading control. The levels of the proteins were measured by densitometric analysis of immunoblot, and the phosphorylated amounts and relative intensities calculated with respect to PDK1 and PDK2 were converted with respect to α-tubulin signals and then quantitated. As a result of three independent experiments showing similar results, a representative blot picture was illustrated. […]

CO[C@H]1/C=C\C=C(/C)C(=O)NC2=CC(=O)C(NCCN(C)C)=C(C[C@@H](C)C[C@H](OC)[C@H](O)[C@@H](C)/C=C(\C)[C@@H]1OC(N)=O)C2=O [17-DMAG, 17-(dimethylaminoethylamino)-17-demethoxygeldanamycin]
level of PDK1: decreased
